# Results as given in PMC6288471 (Frontiers in Veterinary Science, 2018).
# Entries after “also recorded” stand apart in the source; their conditions may differ. Like-named read-outs stand apart in the source and are kept apart here.
# What was measured:
# [1] = Pharmacokinetics of apixaban after oral and intravenous administration; plasma concentrations by UPLC-MS, two-compartment model; type: in vivo; conditions: horses; for half-life / clearance / Vd: iv
# Protocol: The first and last treatments for each horse were IV administration of drug or placebo (Figure 1). […] Investigators were blinded to each treatment until the conclusion of the study.
# Blood samples were collected before drug administration (time 0) and at 3 (IV) or 15 (PO) min, then at 30, 45 min, 1, 2, 3, 4, 6, 8, and 24 h after drug administration into 6-mL syringes (Monoject Syringe, Covidien Ltd, Mansfield, MA, USA) prefilled with 3.8% citrate anticoagulant (Sigma-Aldrich, St Louis, MO, USA) maintaining a ratio of 9:1 blood:citrate. The citrate-anticoagulated blood was used to prepare platelet-poor plasma (PPP) for measurement of UPLC-MS concentrations, anti-Xa activities and dilute prothrombin times (dPT) and platelet-rich plasma (PRP) for flow cytometric analysis of ex vivo platelet activation in response to exposure to EHV-1. Blood was also collected into EDTA- and non-anticoagulant samples for clinical pathologic testing before and 24 h after each treatment (Figure 1). With the exception of 24 h samples, blood was collected at each time point through an indwelling jugular catheter (14 G × 15 cm, Milacath®, MILA International, Florence, KY, USA) after removing 20–30 mL of blood. Patency of the catheters was maintained by flushes with sterile saline solution (0.9% sodium chloride injection USP, Baxter Healthcare Corporation, Deerfield, IL, USA) after each blood draw. The catheter was removed after collection of the 8 h sample. For IV administration, a second catheter was placed in the opposite jugular vein for bolus drug delivery and removed immediately after drug administration and flushing of the catheter with sterile saline. For the 24 h sample, blood was collected from the jugular vein (the vein contralateral to that used for the indwelling catheter) into a 3.8% citrate anticoagulant prefilled 6-mL syringe via an 18 G needle (Monoject Veterinary Needle, Covidien Ltd, Mansfield, MA, USA) and into EDTA- and non-anticoagulant vacutainers (Becton-Dickinson, Franklin Lakes, NJ, USA) via a vacutainer needle (21 G, Becton-Dickinson Eclipse™ Vacutainer® with pre-attached holder).
# This was performed as previously described ([33]). Analysis by UPLC-MS/MS was performed on a 2D UPLC system (Waters Acquity UPLC H-class with 2D Technology System, Waters GmbH, Eschborn, Germany) directly coupled to a Xevo TQ-S tandem mass spectrometer (Waters GmbH, Eschborn, Germany) which was operated in electrospray positive ionization mode. The system control and data acquisition were performed using MassLynx NT 4.1 software with automated data processing by the MassLynx QuanLynx program provided with the instrument. The lower limit of detection for all DOACs of the UPLC-MS/MS method was < 0.2 ng/mL. Since DOAC values < 7 ng/ml were not clinically relevant, all time points below this value were considered zero.
# Pharmacokinetic analysis was performed using a two-compartment open model with weighting of 1/y^2 (Phoenix®, WinNonlin® software, Certara Inc., St. Louis, Missouri).
# Secondary parameters calculated include distribution (α) and elimination (β) half-lives (T½), microdistribution rate constants, area-under-the-curve (AUC), apparent volume of distribution at steady-state (VSS), systemic clearance (CL), and mean residence time (MRT).
# [2] = Protein binding of apixaban in spiked platelet-poor plasma (ultrafiltration, UPLC-MS); type: in vitro ADME, horse
# Protocol: The supernatant was filtered with a […] syringe filter (Corning Inc.). […] Half of the sample was subsequently frozen at −20°C and the rest was ultracentrifuged at 16,000 × g for 30 min in a molecular exclusion device (Amicon Ultra 30k filter, Millipore), to remove the major plasma proteins. The ultrafiltrate was then frozen at −20°C. Both the spiked plasma and the ultrafiltrate of the spiked plasma were analyzed for apixaban using UPLC-MS.
# [3] = target: T1, bovine activated Factor X (Bos taurus, UniProt P00743); test: Apixaban-calibrated chromogenic anti-Xa activity assay in platelet-poor plasma of dosed horses; type: in vivo, horse; conditions: for Anti-Xa activity (ng/mL), median (range): PO 0.2 mg/kg
# T1 construct: purchased Diagnostica Stago STA®-Liquid anti-Xa
# Protocol: The PPP was harvested from the supernatant of PRP after high-speed centrifugation (13,000 × g, Accuspin Micro, Thermo Scientific, Rockford, IL, USA) for 5 min. The PPP was frozen at −20°C and assays were performed in batches. The PPP was thawed at 37°C in a water bath before analysis with an automated coagulation analyzer (STA® Compact, Diagnostica Stago, Parsipanny, NJ, USA). The assay is configured with a bovine activated Factor X reagent added in excess to the test plasma and a chromogenic substrate of Factor Xa (STA®-Liquid anti-Xa, Diagnostica Stago). In this assay, residual, uninhibited Factor Xa cleaves the chromogenic substrate such that the inverse of the color change in the reaction mixture is proportional to the drug concentration in the test plasma.
# platelets = conditions: PRP spiked ex vivo with concentrations similar to 44 to 74 ng/mL, data not shown
# [4] = cats, cited from earlier work
# [5] = rats; cited from earlier work
# [6] = chimpanzees; cited from earlier work
# [7] = humans; cited from earlier work
# [8] = other animals; cited from earlier work
# P-glycoprotein = conditions: cited from earlier work
# [9] = single oral dose 0.2 mg/kg, 0.2 mg/kg
# T1 sequence (P00743 234-492 limits assumed): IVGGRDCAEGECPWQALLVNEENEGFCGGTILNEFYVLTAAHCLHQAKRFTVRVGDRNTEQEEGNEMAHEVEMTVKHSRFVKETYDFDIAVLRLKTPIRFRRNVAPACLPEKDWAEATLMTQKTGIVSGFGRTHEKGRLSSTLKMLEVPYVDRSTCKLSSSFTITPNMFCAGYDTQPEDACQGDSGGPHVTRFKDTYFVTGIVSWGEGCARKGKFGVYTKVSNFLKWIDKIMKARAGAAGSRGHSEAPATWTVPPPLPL
# T1 sequence (P00743 41-180 limits assumed): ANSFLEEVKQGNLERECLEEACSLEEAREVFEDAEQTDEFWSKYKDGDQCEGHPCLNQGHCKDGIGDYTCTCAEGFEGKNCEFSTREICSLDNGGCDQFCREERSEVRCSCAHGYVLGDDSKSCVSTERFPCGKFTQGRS
smiles,measurement,setting,value
COc1ccc(-n2nc(C(N)=O)c3c2C(=O)N(c2ccc(N4CCCCC4=O)cc2)CC3)cc1 [apixaban],half-life,"[1]; horse, plasma, IV administration, read-out: elimination half-life (converted)",1.3 ± 0.2 h
same,clearance,"[1]; horse, plasma, IV administration, read-out: rate of clearance (converted)",2.53 mL/min/kg
same,Vd,"[1]; horse, plasma, IV administration, read-out: volume of distribution (VDSS)",0.0933 ± 0.0756 L/kg
same,Tmax,"[1]; horse, plasma, IV administration, read-out: time of peak plasma concentration (converted)",3 min
same,volume of distribution (VDSS),[1]; IV administration,~ 90 mL/kg
same,time by which plasma apixaban decreased to undetectable levels,"[1]; IV administration, all horses",≤ 8 h
same,apixaban in plasma after oral administration (UPLC-MS),[1]; [9],no detectable apixaban in plasma; also recorded: not detected in plasma
same,oral absorption,[1]; [9],not orally absorbed
same,clearance,"[1]; plasma, single IV dose […], read-out: CL (systemic clearance), geometric mean (converted)",2.45 mL/min/kg
same,clearance,"[1]; plasma, single IV dose […], read-out: CL (systemic clearance), mean (converted)",2.53 mL/min/kg
same,Vd,"[1]; plasma, single IV dose […], read-out: VC (apparent volume of distribution for central compartment), geometric mean",0.0164 L/kg
same,Vd,"[1]; plasma, single IV dose […], read-out: VC (apparent volume of distribution for central compartment), mean",0.0201 L/kg
same,Vd,"[1]; plasma, single IV dose […], read-out: VSS (volume of distribution at steady-state), geometric mean",0.0718 L/kg
same,Vd,"[1]; plasma, single IV dose […], read-out: VSS (volume of distribution at steady-state), mean",0.0933 L/kg
same,half-life,"[1]; plasma, single IV dose […], read-out: t½β (half-life of the elimination phase), geometric mean (converted)",1.27 h
same,half-life,"[1]; plasma, single IV dose […], read-out: t½β (half-life of the elimination phase), mean (converted)",1.28 h
same,"fraction unbound at 30 min, 200 nM","[2]; horse PPP spiked at 92 ng/mL (200 nM), read-out: mean percentage of protein binding (converted)",0.076
same,"fraction unbound at 30 min, 1000 nM","[2]; horse PPP spiked at 460 ng/mL (1,000 nM), read-out: mean percentage of protein binding (converted)",0.015
same,fraction unbound at 30 min,"[2]; horse plasma, range as given in abstract",0.01 to 0.08
same,"Anti-Xa activity (ng/mL), median (range)",[3]; 15 min,7.4 (5.9–9.4) ng/mL
same,"Anti-Xa activity (ng/mL), median (range)",[3]; 30 min,7.5 (6.8–12.5) ng/mL
same,"Anti-Xa activity (ng/mL), median (range)",[3]; 45 min,9.9 (8.4–10.1) ng/mL
same,"Anti-Xa activity (ng/mL), median (range)",[3]; 1 h,10.9 (8.4–17) ng/mL
same,"Anti-Xa activity (ng/mL), median (range)",[3]; 2 h,9.7 (7.4–14.8) ng/mL
same,"Anti-Xa activity (ng/mL), median (range)",[3]; 4 h,9.3 (3.8–12) ng/mL
same,"Anti-Xa activity (ng/mL), median (range)",[3]; 6 h,10.7 (6.3–13.8) ng/mL
same,"Anti-Xa activity (ng/mL), median (range)",[3]; 24 h,7.6 (0–8.3) ng/mL
same,change in anti-Xa activity,[3]; oral dosing of apixaban,No change
same,inhibition of platelet activation in spiked equine PRP,platelets,did not see any inhibition
same,half-life,[4]; 0.2 mg/kg IV dose,1.1 h
same,Cmax,[4]; IV administration 0.2 mg/kg,460 ng/mL
same,bioavailability,[4]; oral 0.2 mg/kg,85%
same,Cmax,[4]; oral administration 0.2 mg/kg,74 ng/mL
same,availability after oral administration,[5],50%
same,availability after oral administration,[6],50%
same,availability after oral administration,[7],50%
same,"fecal route of elimination, share of the dose",[7],> 46%
same,"fecal route of elimination, share of the dose",[8],more than 54%
same,P-glycoprotein substrate,P-glycoprotein,substrate
